Values of other authors, collected in US9221758B2, “Methods of synthesizing pharmaceutical salts of a factor Xa inhibitor” (Millennium Pharmaceuticals, Inc., priority 2006, dated 2015).
Where two headings read alike, the source gives them in different places.

Columns and labels:
[1] = statement in words, information in US2007/0112039
Factor Xa = Factor Xa (Homo sapiens, UniProt P00742); settings: statement in words, as discussed in U.S. Pat. No. 6,376,515
Chain of Factor Xa (P00742 235-488 limits assumed): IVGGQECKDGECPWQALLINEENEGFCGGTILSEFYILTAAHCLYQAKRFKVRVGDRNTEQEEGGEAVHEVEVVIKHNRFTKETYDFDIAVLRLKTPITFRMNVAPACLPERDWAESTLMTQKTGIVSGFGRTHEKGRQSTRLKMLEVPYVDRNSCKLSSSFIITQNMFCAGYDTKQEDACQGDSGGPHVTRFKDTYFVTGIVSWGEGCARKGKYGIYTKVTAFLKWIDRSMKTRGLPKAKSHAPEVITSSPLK
Chain of Factor Xa (P00742 41-179 partner limits assumed): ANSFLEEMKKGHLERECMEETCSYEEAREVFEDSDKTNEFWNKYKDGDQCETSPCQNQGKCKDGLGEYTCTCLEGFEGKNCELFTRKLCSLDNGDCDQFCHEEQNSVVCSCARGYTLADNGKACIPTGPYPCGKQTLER

Structure (SMILES): COc1ccc(NC(=O)c2ccc(C(=N)N(C)C)cc2)c(C(=O)Nc2ccc(Cl)cn2)c1
- thermal and hydrolytic stability [1]: excellent
- thermal and hydrolytic stability ([1]; listed as maleate salt): best thermal and hydrolytic stability observed

Structure (SMILES): COc1ccc(NC(=O)c2ccc(C(=N)N(C)C)cc2)c(C(=O)Nc2ccc(Cl)cn2)c1 [compound of Formula I]
- Xa inhibitor potency (Factor Xa): potent Xa inhibitor
